This is an account of results in US10624917B2, “Compositions and methods useful for treating or preventing liver diseases or disorders, and promoting weight loss” (YALE UNIVERSITY, priority 2014, dated 2020).

Assay [1] deals with Il1b and other genes in PECs. Description: Quantitative real-time RT-PCR gene expression in PECs. The assay is classed as cell-based, mouse. The note with it: for ability to supersede LPS tolerance for TIMP-1, VEGF and GLUT-1 gene expression / expression level of IL6 / expression level of Il1b / expression level of Il4: LPS primed PECs; for expression level of IL6 / expression level of Il1b / expression level of Il4: over 6 and 24 hours; for Il1b mRNA expression: PECs pretreated with LPS for 16 hours (LPS tolerant). As to the method:
(§1) FIGS. 3A-3I illustrate the finding that adenosine supersedes LPS induced tolerance and increases IL-1β production by upregulating transcription of pro-IL-1β via cAMP-PKA pathway. PECs were used in all of the following experiments. FIG. 3A: Primed (pri) with LPS (100 ng/ml) for 16 hours followed by stimulation (stim) with LPS (100 ng/ml), or NECA (10 μM) or CGS21680 (10 μM) in the presence or absence of LPS (100 ng/ml) for 6 hours. FIG. 3B: Treated with forskolin for 6 hours as indicated doses with and without LPS priming FIG. 3C: Treated with or without NECA (10 μM), CGS21680 (10 μM) or db-cAMP (200 μM) for 6 hours. FIG. 3D: LPS primed and treated with NECA or CGS21680 in the presence and absence of SQ22536, H89 and PKi. FIG. 3E: Primed with LPS for 16 hours and treated with ATP for 20 min, followed by CGS 21680 in the presence or absence of the adenylyl cyclase and PKA inhibitors SQ22536 and H-89. FIG. 3F: Primed with LPS and treated with or without NECA (10 μM) or db-cAMP (200 μM) for 6 hours. FIG. 3G: Treated with or without CGS21680 (10 μM) for 3 hours, and transcription was stopped by adding […] actinomycin D, and RNA samples collected at indicated times-points. FIG. 3H: LPS primed PECs obtained from wild type or A2AR-cKO mice were stimulated with NECA (10 μM) for 6 hours. The cells were harvested and RNA isolated after each treatment and the gene expression of Il1b and other genes as indicated quantified by real-time PCR using specific primers. FIG. 3I: Primed with LPS for 16 hours and treated with ATP for 20 min, followed by CGS 21680 in the presence or absence of SQ22536 or H-89 Immunoblot analysis of the proIL-1β caspase-1 in cell lysate was performed by specific […] and anti caspase-1 p10 antibodies (FIGS. 3C, 3E-3F, 3I). Data are expressed as the mean±SD from three independent experiments Immunoblots shown are representative results from at least three independent experiments. *p<0.05 determined by Student's t-test.
FIGS. 9A-9H illustrate changes in expression of cytokines and tissue repair genes in peritoneal macrophages in response to adenosine agonists. LPS naive or LPS primed PECs were stimulated with LPS (100 ng ml^−1), CGS21680 (10 μM) or NECA (10 μM) at different time points as indicated. The cells were harvested and RNA isolated after each treatment, and the gene expression of ProIL-1β (Il1b) (FIG. 9A), IL-6 (Il6) (FIG. 9B), IL-4 (Il4) (FIG. 9C), TNF-α (tnfa) (FIG. 9D), TIMP-1 (Timp1) (FIG. 9E), VEGF (vegf) (FIG. 9F), PGK-1 (Pgk1) (FIG. 9G), GLUT-1 (Slc2a1) (FIG. 9H) quantified by real-time PCR using each specific gene primer set as listed. Data are expressed as the mean±SD from three independent experiments. *p<0.05 determined by Student's t-test.
Total RNA was extracted using TRIZOL reagent (Invitrogen), and cDNA was generated with an oligo (dT) primer and the Superscript II system (Invitrogen, USA) followed by analysis using LightCycler 480 system (Roche). q-PCR was performed for Il1b using commercial primer-probe sets (Applied Biosystems Inc.) with DNA master Mix (Roche). Expression of GAPDH was used to standardize the samples, and the results were expressed as a ratio relative to control; q-PCR was performed for tnfa, 116, Txnip, Nlrp3, Hif1a, Timp1, using LightCycler 480 SYBR Green I master mix (Roche). Results were normalized based on the expression of β-actin.
On the technique in general: Quantitative PCR measures a nucleic acid by following its amplification.

Assay [2] deals with active caspase-1 / pro-IL-1β in PECs. Briefly: Western blot of caspase-1 and pro-IL-1β in PECs. It counts as cell-based, mouse. To be noted: for up-regulation of Pro-IL-1β: 6 hours, FIG. 3C. Here is the method: FIGS. 2A-2H illustrate the finding that adenosine mediates increase in IL-1β via the A2A receptor and amplifies signal 1 and signal 2 pathways. FIG. 2A: LPS primed PECs were treated with NECA (10 μM) in the presence or absence of […] different adenosine receptor antagonists for A1 (DPCPX, 10 nM), A2A (ZM 241385, 10 μM), A2B (MRS1706, 10 nM), A3 (MRS1523, 5 μM), or their combinations for 1 hour, and pulsed with ATP for 20 min. FIGS. 2A-2B: A2A receptor specific agonist (CGS21680) and antagonist ZM 241385 increase and block IL-1β production respectively. […] FIG. 2D: PEC's from A2A receptor deficient cells have low IL-1β production, which is not increased by NECA and CGS 21680. FIG. 2E: CGS21680 increases induction of Il1b mRNA expression, and this was decreased in A2A receptor deficient cells. FIG. 2F: Loss of the A2A receptor in macrophages results in much lower levels of Il1b protein A expression in response to LPS. FIG. 2G: CGS21680 and […] increases and decreases production of cleaved caspase-1, respectively. FIG. 2H: The production of cleaved caspase-1 is decreased in A2A receptor deficient macrophages. Data are expressed as the mean±SD from at least three independent experiments Immunoblots shown are representative results from at least three independent experiments. p<0.05 determined by Student's t-test.
as §1
Liver tissue lysates or PECs were lysed in RIPA buffer (10 mM phosphate buffer pH 7.4, 150 mM NaCl, 1% NP-40, 0.5% sodium deoxycholate, 0.1% SDS) supplemented with complete protease inhibitor cocktail (Roche) and 2 mM dithiothreitol. Lysates were resolved in 4-12% Tris-glycine gradient gels (Invitrogen) and transferred to nitrocellulose (Invitrogen) by electro-blotting. The following antibodies were used: rabbit anti-caspase-1 p10 (SC-514, Santa Cruz), goat anti-mouse IL-1β (BAF401, R&D Systems), Rabbit antimouse HIF-1α (NB100-449, Novus Biologicals, Littleton, Colo.).
(A western blot detects proteins with antibodies after separation by electrophoresis.)

Take `CCNC(=O)[C@H]1O[C@@H](n2cnc3c(N)nc(NCCc4ccc(CCC(=O)O)cc4)nc32)[C@H](O)[C@@H]1O` [CGS21680]: in assay [1], the “ability to supersede LPS tolerance for TIMP-1, VEGF and GLUT-1 gene expression” value is reported as “consistent ability”; the “expression level of IL6” value is reported as “increase”; the “expression level of Il1b” value is “increase”; the “expression level of Il4” value is listed as “increase”. Moreover, the “Il1b mRNA expression” value in assay [1] is “dramatic increase”. For the same compound, in assay [1] (transcription stopped with actinomycin D), the “Il1b transcript stability (rate of loss of Il1b mRNA)” value is listed as “did not affect transcript stability”. Also, the “up-regulation of Pro-IL-1β” value in assay [2] is “induced up-regulation”. For the same compound, the “active caspase-1” value in assay [2] (compound alone) was “did not result in detectable active caspase-1”. The “active (cleaved) caspase-1” value in assay [2] (in response to LPS/ATP) is recorded as “increases”.
Consider `CCNC(=O)[C@H]1O[C@@H](n2cnc3c(N)ncnc32)[C@H](O)[C@@H]1O` [NECA, 5′-(N-ethylcarboxamido) adenosine], for which, in assay [1], the “ability to supersede LPS tolerance for TIMP-1, VEGF and GLUT-1 gene expression” value is reported as “consistent ability”; the “expression level of IL6” value is reported as “increase”; the “expression level of Il1b” value is given as “increase”; the “expression level of Il4” value is on record as “increase”. The “Il1b mRNA expression” value in assay [1] is “dramatic increase”. For the same compound, the “up-regulation of Pro-IL-1β” value in assay [2] was “induced up-regulation”.
